From BindingDB's records for doi:10.1016/S0960-894X(97)00241-2 (1997)

Molecular target: Nitric oxide synthase, brain (Bos taurus)
Assay: Inhibition against neuronal nitric oxide synthase (nNOS) from bovine brain was determined

For C#CCNC(=N)N [amino(prop-2-ynylamino)methaniminium], the Ki was 12 mM.
